Laboratory results published in ChEMBL document CHEMBL1208673, “CoMFA and CoMSIA 3D-QSAR studies on quionolone caroxylic acid derivatives inhibitors of HIV-1 integrase” (Eur J Med Chem, 2010).

Target: Human immunodeficiency virus type 1 integrase (Human immunodeficiency virus 1, UniProt Q7ZJM1)
Assay: Inhibition of HIV-1 integrase

Sequence of Human immunodeficiency virus type 1 integrase (Q7ZJM1 whole entry): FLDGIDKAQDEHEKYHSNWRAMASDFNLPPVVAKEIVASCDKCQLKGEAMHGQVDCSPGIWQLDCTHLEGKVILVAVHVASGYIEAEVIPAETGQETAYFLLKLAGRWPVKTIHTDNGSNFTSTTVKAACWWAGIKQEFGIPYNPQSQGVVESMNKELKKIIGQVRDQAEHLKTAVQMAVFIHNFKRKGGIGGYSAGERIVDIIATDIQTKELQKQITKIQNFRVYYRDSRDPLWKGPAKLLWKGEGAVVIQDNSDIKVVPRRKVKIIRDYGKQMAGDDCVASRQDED

| Compound | IC50 [µM] |
| --- | --- |
| COc1cc2c(cc1Cc1cccc(Cl)c1F)c(=O)c(C(=O)O)cn2CCO | 0.00891 |
| O=C(O)Cn1cc(C(=O)O)c(=O)c2cc(Cc3cccc(Cl)c3Cl)ccc21 | 0.0316 |
| O=C(O)c1c[nH]c2ccc(Cc3cccc(Cl)c3Cl)cc2c1=O | 0.0692 |
